This note sets out measurements from ChEMBL document CHEMBL1944520, “Discovery of 3-aryloxy-lactam analogs as potent androgen receptor full antagonists for treating castration resistant prostate cancer” (Bioorg Med Chem Lett, 2012).

Values after ≈ are worked out from the molar mass of the structure shown.

Series [1] concerns the target T1, Androgen receptor (Homo sapiens) (UniProt P10275).
T1 sequence (whole entry): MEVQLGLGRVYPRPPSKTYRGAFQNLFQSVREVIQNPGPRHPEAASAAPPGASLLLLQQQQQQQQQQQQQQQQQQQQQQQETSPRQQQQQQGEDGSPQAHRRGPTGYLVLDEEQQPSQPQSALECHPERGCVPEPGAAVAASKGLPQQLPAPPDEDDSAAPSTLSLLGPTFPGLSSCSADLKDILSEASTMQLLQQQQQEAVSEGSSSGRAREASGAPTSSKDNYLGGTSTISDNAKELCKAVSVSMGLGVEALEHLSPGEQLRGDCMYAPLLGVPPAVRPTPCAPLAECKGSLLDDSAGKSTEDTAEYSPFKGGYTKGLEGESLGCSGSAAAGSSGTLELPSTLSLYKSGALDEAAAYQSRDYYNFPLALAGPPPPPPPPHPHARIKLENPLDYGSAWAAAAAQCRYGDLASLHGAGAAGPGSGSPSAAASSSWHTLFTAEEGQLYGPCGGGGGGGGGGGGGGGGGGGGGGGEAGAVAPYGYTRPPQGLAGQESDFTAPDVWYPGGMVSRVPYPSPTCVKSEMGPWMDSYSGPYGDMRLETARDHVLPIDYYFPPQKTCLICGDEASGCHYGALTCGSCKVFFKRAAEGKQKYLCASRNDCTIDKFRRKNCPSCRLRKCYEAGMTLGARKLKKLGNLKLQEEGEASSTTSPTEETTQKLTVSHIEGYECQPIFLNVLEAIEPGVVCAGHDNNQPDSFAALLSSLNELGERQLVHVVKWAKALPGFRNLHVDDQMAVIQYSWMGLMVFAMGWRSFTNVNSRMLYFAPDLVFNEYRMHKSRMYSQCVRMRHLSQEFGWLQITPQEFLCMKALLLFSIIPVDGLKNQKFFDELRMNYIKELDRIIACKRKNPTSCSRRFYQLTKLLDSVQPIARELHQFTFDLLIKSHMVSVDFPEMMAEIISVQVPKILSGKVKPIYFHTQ
Briefly: Agonist activity at androgen receptor expressed in human LNAR cells as induction of luciferase activity by spectrophotometry relative to untreated control. Type of series: functional, cell-based.

For another series, the system named is Liver microsomes. Briefly: Unbound intrinsic clearance in human liver microsomes. Format: ADME, Microsome.
The nature of series [2]: Solubility of the compound at pH 7.4. Format: physicochemical. The note with it: buffer.
Series [3] can be described thus: Fraction unbound in human. Type of series: ADME, organism-based. The note with it: in vivo.
In another series the test system is Rattus norvegicus. Briefly: Unbound plasma clearance in iv dosed rat. Type of series: ADME, organism-based. The note with it: in vivo.
A short description of series [4]: Oral bioavailability in rat. Format: ADME, organism-based. The conditions noted are these: in vivo.
The target in another series is T2, Androgen receptor (Homo sapiens, UniProt P10275).
T2 sequence (P10275 whole entry): T1 sequence (whole entry)
Kind of series: Antagonist activity at androgen receptor expressed in human LNAR cells assessed as inhibition of R1881-induced luciferase activity by spectrophotometry. Type of series: functional, cell-based.

For series [5], the target named is T1, Androgen receptor (Homo sapiens). Briefly: Antagonist activity at androgen receptor expressed in human LNAR cells assessed as inhibition of R1881-induced luciferase activity at 1 uM by spectrophotometry. Type of series: functional, cell-based.
For series [6] the target is unchanged. Kind of series: Antagonist activity at androgen receptor expressed in human LNAR cells assessed as inhibition of R1881-induced luciferase activity at 0.1 uM by spectrophotometry. Format: functional, cell-based.

Usually solubility stands for the dissolved amount per volume that the medium holds. High values mean a readily soluble substance, low ones a poorly soluble substance. By fraction unbound is commonly meant the share of the substance not bound to proteins or other matrix. A lower fraction unbound goes with little free substance. By bioavailability is commonly meant dose-corrected exposure relative to a reference, in per cent. A low value points to poor availability. A word on the IC50: it is the point on the concentration scale where inhibition reaches its midpoint. `CC1(C)CN(CCC#N)C(=O)[C@@H]1Oc1ccc(C#N)c(C(F)(F)F)c1`: the fold change (FC) in series [1] was 0.89. The CL free in the series with Liver microsomes was determined as 19.1 µL/min/mg; in the series on Rattus norvegicus, 170 mL/min/kg. Further, the concentration in solution in series [2] (solubility) was 57 µg/mL (≈ 162 µM). The fraction unbound in [3] was 0.226. Also, in [4], the bioavailability worked out at 64%. In addition, the IC50 on Androgen receptor stood at 131 nM.
In the case of `CC(=O)CN1CC(C)(C)[C@@H](Oc2ccc(C#N)c(C(F)(F)F)c2)C1=O`, in series [1], the fold change (FC) was 0.91. In addition, the IC50 on Androgen receptor amounted to 266 nM.
As a reminder, the inhibition is the share of the control response that was lost under treatment. Regarding `CC1(C)CN(CCCO)C(=O)[C@@H]1Oc1ccc(C#N)c(C(F)(F)F)c1`, the fold change (FC) in series [1] was found to be 1.11. Further, the inhibition in series [5] turned out to be 87%.
On to `CC(O)CN1CC(C)(C)[C@@H](Oc2ccc(C#N)c(C(F)(F)F)c2)C1=O` (single isomer, unassigned) [listing 1 of 2 here], for which, at Androgen receptor, the IC50 was 977 nM.
As for `CC(O)(CO)CN1CC(C)(C)[C@@H](Oc2ccc(C#N)c(C(F)(F)F)c2)C1=O` (stereo in doubt; 24), the fold change (FC) in [1] came out at 1.01. The inhibition in [5] was found to be 17%.
As for `CC(CO)N1CC(C)(C)[C@@H](Oc2ccc(C#N)c(C(F)(F)F)c2)C1=O` (stereo in doubt; 14) [listing 1 of 2 here], the IC50 at Androgen receptor turned out to be 371 nM.
Take `CC1(C)CN(C(C)(C)CO)C(=O)[C@@H]1Oc1ccc(C#N)c(C(F)(F)F)c1`: in series [1], the fold change (FC) is 0.91. The IC50 at Androgen receptor is 761 nM.
For `CC1(C)CNC(=O)[C@@H]1Oc1ccc(C#N)c(C(F)(F)F)c1`, the fold change (FC) in [1] is 1.31. Besides, on Androgen receptor, the IC50 was 105 nM.
For `C[C@@H](c1nnc(-c2ccccc2)o1)N1CC(C)(C)[C@@H](Oc2ccc(C#N)c(C(F)(F)F)c2)C1=O`, in series [1], the fold change (FC) was 3.09. Besides, the results for the CL free in the series with Liver microsomes and with Rattus norvegicus were 43.87 µL/min/mg and 4294 mL/min/kg, respectively. In addition, in [2], the solubility worked out at 3.7 µg/mL (≈ 7.86 µM). Also, the fraction unbound in [3] is 0.0181. The inhibition in [6] came out at 62%. The same molecule showed a bioavailability in series [4] of 25%.
Turning to `CC(CO)CN1CC(C)(C)[C@@H](Oc2ccc(C#N)c(C(F)(F)F)c2)C1=O` (stereo in doubt; 23) [listing 1 of 2 here], the fold change (FC) in series [1] was 0.95.
Still for that read-out and setting: to `CC(CO)N1CC(C)(C)[C@@H](Oc2ccc(C#N)c(C(F)(F)F)c2)C1=O` (stereo in doubt; 15) [listing 1 of 2 here] belongs 1.02.
Regarding `CC1(C)CN(CCO)C(=O)[C@@H]1Oc1ccc(C#N)c(C(F)(F)F)c1`, in series [1], the fold change (FC) came to 1.03. Also, at Androgen receptor, the IC50 amounted to 263 nM.
Regarding `CC(CO)CN1CC(C)(C)[C@@H](Oc2ccc(C#N)c(C(F)(F)F)c2)C1=O` (stereo in doubt; 22), the fold change (FC) in series [1] was determined as 1.01. Also, in series [5], the inhibition was 96%.
For the molecule `CC1(C)CN(Cc2nnc(-c3ccccc3)o2)C(=O)[C@@H]1Oc1ccc(C#N)c(C(F)(F)F)c1`, in series [1], the fold change (FC) came out at 0.95. Also, the CL free is 19.3 µL/min/mg in the series on Liver microsomes and 921 mL/min/kg in the series with Rattus norvegicus. This molecule also yielded a solubility in series [2] of 5.9 µg/mL (≈ 12.9 µM). In addition, the fraction unbound in series [3] came to 0.0127. In series [4], this molecule came in with a bioavailability of 10%. For the same molecule, the IC50 at Androgen receptor turned out to be 71 nM.
Turning to `CC(O)CN1CC(C)(C)[C@@H](Oc2ccc(C#N)c(C(F)(F)F)c2)C1=O` (stereo in doubt; 18) [listing 1 of 2 here], at Androgen receptor, the IC50 is 216 nM.
On to `CC1(C)CN(CCC#N)C(=O)[C@@H]1Oc1cnc(C#N)c(C(F)(F)F)c1`, for which the fold change (FC) in series [1] was 0.89. Moreover, the inhibition in series [5] stood at 52%.
Turning to `CC(CO)N1CC(C)(C)[C@@H](Oc2ccc(C#N)c(C(F)(F)F)c2)C1=O` (stereo in doubt; 14) [listing 2 of 2 here], the fold change (FC) in [1] stood at 1.06.
Consider `COC(=O)CN1CC(C)(C)C(Oc2ccc(C#N)c(C(F)(F)F)c2)C1=O` (racemic), for which the fold change (FC) in series [1] was found to be 1.05. The IC50 at Androgen receptor amounted to 303 nM.
Turning to `CCCN1CC(C)(C)[C@@H](Oc2ccc(C#N)c(C(F)(F)F)c2)C1=O`, the fold change (FC) in series [1] came out at 1.45. In [5], the inhibition came out at 88%.
As for `CC(CO)CN1CC(C)(C)[C@@H](Oc2ccc(C#N)c(C(F)(F)F)c2)C1=O` (stereo in doubt; 23) [listing 2 of 2 here], the IC50 on Androgen receptor amounted to 371 nM.
In the case of `CC(O)(CO)CN1CC(C)(C)[C@@H](Oc2ccc(C#N)c(C(F)(F)F)c2)C1=O` (stereo in doubt; 25), in [1], the fold change (FC) was 0.92. Further, the inhibition in series [5] was 27%.
As for `CC(O)CN1CC(C)(C)[C@@H](Oc2ccc(C#N)c(C(F)(F)F)c2)C1=O` (single isomer, unassigned) [listing 2 of 2 here], the fold change (FC) in series [1] was 0.97.
Take `CC1(C)CN(CCC#N)C(=O)[C@@H]1Oc1cc(C(F)(F)F)c(C#N)cn1`: in [1], the fold change (FC) was 1.16. The inhibition in series [5] turned out to be 47%.
Turning to `CC1(C)CN(CCC#N)C(=O)[C@@H]1Oc1ccc(C#N)cc1`, the fold change (FC) in series [1] was found to be 0.95. For the same molecule, the inhibition in series [5] was found to be 10%.
With `CC1(C)CN(CCC#N)C(=O)[C@@H]1Oc1ccc(C#N)c(Cl)c1`, in [1], the fold change (FC) stood at 0.99. The same molecule registered a solubility in series [2] of 159 µg/mL (≈ 500 µM). For the same molecule, the IC50 at Androgen receptor came out at 68 nM.
As to `CC(O)CN1CC(C)(C)[C@@H](Oc2ccc(C#N)c(C(F)(F)F)c2)C1=O` (stereo in doubt; 18) [listing 2 of 2 here], the fold change (FC) in series [1] is 0.99.
As for `CCCCN1CC(C)(C)[C@@H](Oc2ccc(C#N)c(C(F)(F)F)c2)C1=O`, the fold change (FC) in series [1] was 2.12. Also, the inhibition in series [5] came out at 85%.
With `CC(C)(O)CN1CC(C)(C)[C@@H](Oc2ccc(C#N)c(C(F)(F)F)c2)C1=O`, the fold change (FC) in series [1] turned out to be 0.9. Also, the inhibition in series [5] stood at 29%.
For `CNC(=O)CN1CC(C)(C)C(Oc2ccc(C#N)c(C(F)(F)F)c2)C1=O` (racemic) the same measures were 0.85 and 23%.
For the molecule `CC(c1nnc(-c2cccc(F)c2)o1)N1CC(C)(C)C(Oc2ccc(C#N)c(C(F)(F)F)c2)C1=O` (racemic), the fold change (FC) in [1] worked out at 1.43. Also, the CL free in the series with Liver microsomes worked out at 115 µL/min/mg; in the series on Rattus norvegicus, 1585 mL/min/kg. Also, the concentration in solution in series [2] (solubility) came to 3.8 µg/mL (≈ 7.78 µM). Also, in series [3], the fraction unbound came to 0.00825. In series [4], this molecule yielded a bioavailability of 10%. Further, on Androgen receptor, the IC50 was determined as 77 nM.
For the molecule `CC(CO)N1CC(C)(C)[C@@H](Oc2ccc(C#N)c(C(F)(F)F)c2)C1=O` (stereo in doubt; 15) [listing 2 of 2 here], on Androgen receptor, the IC50 came out at 337 nM.
On to `CC1(C)CN(CC#N)C(=O)[C@@H]1Oc1ccc(C#N)c(C(F)(F)F)c1`, for which the fold change (FC) in [1] was 2.75. Besides, the inhibition in [5] stood at 89%.
Take `Cc1nnc(CN2CC(C)(C)[C@@H](Oc3ccc(C#N)c(C(F)(F)F)c3)C2=O)o1`: the fold change (FC) in [1] stood at 0.97. Besides, the concentration in solution in series [2] (solubility) came to 217 µg/mL (≈ 550 µM). The IC50 at Androgen receptor stood at 633 nM.
